{"source": "patent US20130217760A1", "about": "“METHOD FOR ENHANCING THERAPEUTIC EFFECT OF ANTICANCER THERAPIES” (BOTAMEDI INC., priority 2012, published 2013)", "key": {"[1]": {"tested_on": "adriamycin-induced cardiomyopathy", "description": "The composition of the present invention was examined for suppression effects against adriamycin-induced cardiomyopathy.\nA total of 25 male mice (33±5 g, four-week-old) were divided into four groups: three test groups of seven, and one control group of four. Adriamycin (tradename: Doxorubicin Hydrochloride; Sigma-Aldrich, Co, LLC; St. Louis, Mo., USA) in distilled water was intraperitoneally injected at a dose of 1.25 mg/kg once a week for six weeks in the adriamycin group. The other two experimental groups, low-dose and high-dose group, were orally administered with composition 4 at a dose of 32 mg/kg and 64 mg/kg, respectively, everyday for one week, and then intraperitoneally injected with adriamycin in distilled water at a dose of 1.25 mg/kg once a week for six weeks. The control group of 4 mice was injected once a week for six weeks with physiological saline. During the experiment, the mice were given access to food and water ad libitum.\nThe mice were generally anesthetized before and after the six-week experiment, and subjected to two-dimensional echocardiography using a 15-MHz transducer to measure left ventricular end-diastolic dimension (LVEDD) and left ventricular end-systolic dimension (LVESD), left ventricular end-diastolic posterior wall thickness (PW), and left ventricular end-systolic posterior wall thickness (PW). From these measurements, relative wall thickness (RWT), fraction shortening (FS), and left ventricular ejection fraction (LVEF) were calculated. The echocardiographic data are expressed as mean value±SD of five or higher independent measurements."}, "[2]": {"tested_on": "ovarian carcinoma cell line SKOV3 tumors", "experiment": "SKOV3 ovarian carcinoma xenograft, tumor volume and weight", "assay_type": "in vivo, Balb/c nu/nu mice", "method": "The ovarian carcinoma cell line SKOV3 was detached from a culture dish using trypsin-EDTA, and diluted to a density of […] cells/150 in an RPMI medium supplemented with 10% FBS, followed by subcutaneous injection into the right flank of Balb/c nu/nu mice using a syringe. […] The control group was treated with PBS. During the experimental period, the tumor size, body weight and dietary intake of mice in each group was recorded three times per week.\nAfter 4 weeks, the animals were sacrificed and blood was taken from the animals. Tumors were e.xcised from the animals and measured for size and weight."}, "[3]": {"tested_on": "A2780 ovarian carcinoma cell line", "experiment": "Inhibition of cancer cell proliferation, MTT assay, A2780", "assay_type": "cell-based", "details": "A2780, 24 hrs incubation", "method": "(§1) Ovarian […] carcinoma cell lines (SKOV3, A2780) were incubated in minimum essential medium [MEM] supplemented with 10% FBS, 100 units/ml antibiotic antimycotic, and 2.2 g/L sodium bicarbonate at 37° C. for 24 hrs in 96-well plates. The ovarian carcinoma cell lines were seeded at a density of 1×10^4 cells/well into 96-well plates and allowed to adhere to the bottom during incubation for 24 hrs. […] The cells in each well were treated with […] of an MTT reagent (1 mg/ml) for 4 hrs in a dark condition. After the medium was aspirated, the MTT fromazan thus formed was dissolved in […] of DMSO, and absorbance was measured at 540 nm using spectrophotometer."}, "[4]": {"experiment": "Dietary intake (anorexia) in SKOV3 tumor-bearing mice", "assay_type": "in vivo, Balb/c nu/nu mice", "details": "for Diet Intake: Cisplatin group (cisplatin 3 mg/kg i.p.)"}, "[5]": {"tested_on": "SKOV3 ovarian carcinoma cell line", "experiment": "Inhibition of cancer cell proliferation, MTT assay, SKOV3", "assay_type": "cell-based", "details": "SKOV3, 24 hrs incubation", "method": "as §1"}, "[6]": {"tested_on": "Ovarian carcinoma cells (SKOV3)", "experiment": "Apoptosis by PI staining / FACS, co-treatment with Cisplatin", "assay_type": "cell-based", "details": "Individual, 48 hrs", "method": "Apoptotic effects were assessed using a PI staining method. Propidium iodide (PI) is a fluorescent molecule that can bind to DNA of dead cells to evaluate cell cycle and cell viability.\nOvarian carcinoma cells (SKOV3) were incubated at 37° C. for 24 hrs in minimum essential medium [MEM] supplemented with 10% FBS, 100 units/ml antibiotic antimycotic, and 2.2 g/L sodium bicarbonate in 96-well plates. The ovarian carcinoma cell line was seeded at a density of 1×10^4 cells/well into 96-well plates and allowed to adhere to the bottom during incubation for 24 hrs. […] Afterwards, the cells were washed with PBS, and detached with trypsin-EDTA, followed by centrifugation at 1,000 rpm for 10 min. The cells were fixed with 70% ethanol at 4° C. for 24 hrs. After removal of the ethanol, the cells were washed many times with PBS, suspended in PBS containing RNaseA, and reacted with a PI reagent for 10 min at room temperature in a dark condition."}, "[7]": {"details": "Adriamycin Group, Week 0 (Baseline)"}}, "note": "Counter-ions that a name gives are not always drawn. Like-named read-outs stand apart in the source and are kept apart here.", "data": [{"smiles": "COc1cccc2c1C(=O)c1c(O)c3c(c(O)c1C2=O)C[C@@](O)(C(=O)CO)C[C@@H]3O[C@H]1C[C@H](N)[C@H](O)[C@H](C)O1", "note": "[Adriamycin, Doxorubicin Hydrochloride]", "values": [{"measurement": "LVEDD", "setting": "[1]; [7]", "result": "5.7 ± 0.2", "unit": "mm"}, {"measurement": "LVESD", "setting": "[1]; [7]", "result": "2.4 ± 0.3", "unit": "mm"}, {"measurement": "PW", "setting": "[1]; [7]", "result": "1.6 ± 0.2", "unit": "mm"}, {"measurement": "FS", "setting": "[1]; Adriamycin Group, Week 6", "result": "44.2 ± 3.2", "unit": "%"}, {"measurement": "LVEF", "setting": "[1]; Adriamycin Group, Week 6", "result": "70.3 ± 0.3", "unit": "%"}, {"measurement": "LVESD", "setting": "[1]; Adriamycin Group, Week 6", "result": "3.8 ± 0.3", "unit": "mm"}, {"measurement": "PW", "setting": "[1]; Adriamycin Group, Week 6", "result": "1.4 ± 0.3", "unit": "mm"}, {"measurement": "FS Δ(6 − 0)", "setting": "[1]; Adriamycin Group, Δ(6 − 0)", "result": "14.4 ± 1.5", "unit": "%"}, {"measurement": "LVEDD Δ(6 − 0)", "setting": "[1]; Adriamycin Group, Δ(6 − 0)", "result": "1.1 ± 0.1", "unit": "mm"}, {"measurement": "LVEF Δ(6 − 0)", "setting": "[1]; Adriamycin Group, Δ(6 − 0)", "result": "15.2 ± 3.0", "unit": "%"}, {"measurement": "LVESD Δ(6 − 0)", "setting": "[1]; Adriamycin Group, Δ(6 − 0)", "result": "1.4 ± 0.0", "unit": "mm"}, {"measurement": "PW Δ(6 − 0)", "setting": "[1]; Adriamycin Group, Δ(6 − 0)", "result": "0.2 ± 0.1", "unit": "mm"}, {"measurement": "cardiomyopathy after 6 weeks", "setting": "[1]; echocardiography after 6 weeks of study", "result": "cardiomyopathy with significant decrease in left ventricular posterior wall thickness (PW) and in fractional shortening (FS)"}]}, {"smiles": "N.N.[Cl][Pt][Cl]", "note": "[Cisplatin, cis-Diammineplatinum (II) dichloride]", "values": [{"measurement": "tumor size compared to control", "setting": "[2]; 4 weeks administration", "result": "slightly reduced"}, {"measurement": "Tumor Weight after 4 Weeks", "setting": "[2]; Cisplatin alone (3 mg/kg i.p.)", "result": 1.7, "unit": "gram"}, {"measurement": "Tumor Volume", "setting": "[2]; Cisplatin alone (3 mg/kg i.p.), Week 1", "result": 100, "unit": "mm3"}, {"measurement": "Tumor Volume", "setting": "[2]; Cisplatin alone (3 mg/kg i.p.), Week 2", "result": 134, "unit": "mm3"}, {"measurement": "Tumor Volume", "setting": "[2]; Cisplatin alone (3 mg/kg i.p.), Week 3", "result": 144, "unit": "mm3"}, {"measurement": "Tumor Volume", "setting": "[2]; Cisplatin alone (3 mg/kg i.p.), Week 4", "result": 162, "unit": "mm3"}, {"measurement": "IC50 A2780", "setting": "[3]", "result": 6.01, "unit": "µg/mL"}, {"measurement": "Diet Intake", "setting": "[4]; Week 0", "result": 4.8, "unit": "gram"}, {"measurement": "Diet Intake", "setting": "[4]; Week 1", "result": 4.6, "unit": "gram"}, {"measurement": "Diet Intake", "setting": "[4]; Week 2", "result": 4.0, "unit": "gram"}, {"measurement": "Diet Intake", "setting": "[4]; Week 3", "result": 3.7, "unit": "gram"}, {"measurement": "Diet Intake", "setting": "[4]; Week 4", "result": 4.1, "unit": "gram"}, {"measurement": "dietary intake compared to control group", "setting": "[4]; during the experimental periods", "result": "decrease in dietary intake"}, {"measurement": "IC50 SKOV3", "setting": "[5]", "result": 12.3, "unit": "µg/mL"}, {"measurement": "Apoptosis (%)", "setting": "[6]; Cisplatin 3 μM", "result": 3.0, "unit": "%"}, {"measurement": "Apoptosis (%)", "setting": "[6]; Cisplatin 5 μM", "result": 3.5, "unit": "%"}]}]}
